Data as given in ChEMBL document CHEMBL1914342, “Synthesis and in vitro EGFR (ErbB1) tyrosine kinase inhibitory activity of 4-N-substituted 6-aryl-7H-pyrrolo[2,3-d]pyrimidine-4-amines” (Eur J Med Chem, 2011).
The source made the active and inactive calls. The calls are words filed in the database; no cut-off is given here.

Molecular target: T1, Epidermal growth factor receptor (Homo sapiens, UniProt P00533)
Test: Inhibition of EGFR by Z-LYTE assay

T1 sequence (P00533 whole entry): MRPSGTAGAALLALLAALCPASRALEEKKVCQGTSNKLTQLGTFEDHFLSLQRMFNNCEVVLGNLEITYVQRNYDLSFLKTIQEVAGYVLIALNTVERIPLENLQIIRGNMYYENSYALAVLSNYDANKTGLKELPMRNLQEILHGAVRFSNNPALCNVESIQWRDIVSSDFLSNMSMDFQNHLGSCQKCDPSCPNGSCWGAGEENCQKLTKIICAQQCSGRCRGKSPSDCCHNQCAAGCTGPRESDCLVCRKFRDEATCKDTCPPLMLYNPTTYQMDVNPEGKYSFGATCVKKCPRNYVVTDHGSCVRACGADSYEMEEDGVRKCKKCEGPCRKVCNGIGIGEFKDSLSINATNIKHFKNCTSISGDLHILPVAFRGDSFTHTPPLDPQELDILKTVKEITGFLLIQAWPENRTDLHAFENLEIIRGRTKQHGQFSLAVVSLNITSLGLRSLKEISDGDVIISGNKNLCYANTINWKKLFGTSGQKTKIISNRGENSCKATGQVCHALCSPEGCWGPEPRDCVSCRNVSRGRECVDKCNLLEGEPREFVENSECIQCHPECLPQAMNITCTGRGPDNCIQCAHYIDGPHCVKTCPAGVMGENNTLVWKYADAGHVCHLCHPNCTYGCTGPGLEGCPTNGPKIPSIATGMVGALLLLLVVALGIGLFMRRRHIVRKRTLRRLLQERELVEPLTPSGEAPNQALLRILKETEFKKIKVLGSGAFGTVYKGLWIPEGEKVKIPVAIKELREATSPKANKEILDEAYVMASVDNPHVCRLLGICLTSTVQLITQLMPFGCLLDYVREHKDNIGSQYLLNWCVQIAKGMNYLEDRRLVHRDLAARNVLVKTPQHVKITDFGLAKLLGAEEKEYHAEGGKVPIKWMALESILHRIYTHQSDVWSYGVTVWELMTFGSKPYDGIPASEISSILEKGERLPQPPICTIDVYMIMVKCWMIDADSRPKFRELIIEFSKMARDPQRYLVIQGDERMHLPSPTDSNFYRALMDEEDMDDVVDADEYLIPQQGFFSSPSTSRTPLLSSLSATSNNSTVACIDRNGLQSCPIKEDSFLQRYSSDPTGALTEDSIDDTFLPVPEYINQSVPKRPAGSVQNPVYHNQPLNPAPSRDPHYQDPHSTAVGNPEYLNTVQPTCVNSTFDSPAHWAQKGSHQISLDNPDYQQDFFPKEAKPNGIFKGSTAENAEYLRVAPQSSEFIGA

First: C[C@@H](Nc1ncnc2[nH]c(-c3ccc(O)cc3)cc12)c1cccc(F)c1
Second: Cc1cccc(C(C)Nc2ncnc3[nH]c(-c4ccc(O)cc4)cc23)c1 (racemic)
The IC50 of the first is 11-fold lower: 9 nM for the first, 95 nM for the second. The first is the more potent here.

First: C[C@@H](Nc1ncnc2[nH]c(-c3ccc(Br)cc3)cc12)c1ccc(F)cc1
Second: C[C@@H](Nc1ncnc2[nH]c(-c3ccc(O)cc3)cc12)c1ccc(F)cc1
The IC50 of the first is 7.6-fold higher: 29 nM for the first, 3.8 nM for the second.

Compared with `C[C@@H](Nc1ncnc2[nH]c(-c3ccc(Br)cc3)cc12)c1ccccc1`, `C[C@@H](Nc1ncnc2[nH]c(-c3ccc(F)cc3)cc12)c1ccccc1` is 9.5-fold lower in IC50: 63 nM for the first, 6.6 nM for the second.

Going from `Cc1ccc([C@@H](C)Nc2ncnc3[nH]c(-c4ccc(O)cc4)cc23)cc1` to `C[C@@H](Nc1ncnc2[nH]c(-c3ccc(O)cc3)cc12)c1ccc(Br)cc1`, the IC50 falls from 450 nM to 62 nM (7.3-fold).

Going from `Oc1ccc(-c2cc3c(NCc4ccccc4F)ncnc3[nH]2)cc1` to `Oc1ccc(-c2cc3c(NCc4ccccc4)ncnc3[nH]2)cc1`, the IC50 falls from 45 nM to 3.3 nM (14-fold). The second is the more potent here.

`C[C@@H](Nc1ncnc2[nH]c(-c3ccccc3)cc12)c1ccc(F)cc1` and `C[C@@H](Nc1ncnc2[nH]c(-c3ccc(F)cc3)cc12)c1ccc(F)cc1` are within 1.5-fold of each other in IC50: 33 nM for the first, 27 nM for the second.

`CC[C@@H](Nc1ncnc2[nH]c(-c3ccc(O)cc3)cc12)c1ccccc1` and `C[C@@H](Nc1ncnc2[nH]c(-c3ccc(O)cc3)cc12)c1ccccc1` are within 1.5-fold of each other in IC50: 4 nM for the first, 3.7 nM for the second.

First: CC(Nc1ncnc2[nH]c(-c3ccc(O)cc3)cc12)c1ccc(C(F)(F)F)cc1 (racemic)
Second: C[C@@H](Nc1ncnc2[nH]c(-c3ccc(O)cc3)cc12)c1ccccc1F
The IC50 of the first is 580-fold higher: 4610 nM for the first, 8 nM for the second. The second is the more potent here.

Going from `CC(Nc1ncnc2[nH]c(-c3ccc(O)cc3)cc12)c1cccc2ccccc12` (racemic) to `Cc1ccccc1C(C)Nc1ncnc2[nH]c(-c3ccc(O)cc3)cc12` (racemic), the IC50 falls from 1010 nM to 17 nM (59-fold). The second is the more potent here.

Going from `C[C@@H](Nc1ncnc2[nH]c(-c3ccc(C#N)cc3)cc12)c1ccccc1` to `COc1ccc(-c2cc3c(N[C@H](C)c4ccccc4)ncnc3[nH]2)cc1`, the IC50 falls from 12 nM to 4.7 nM (2.6-fold).

Going from `Oc1ccc(-c2cc3c(NCc4cccc(F)c4)ncnc3[nH]2)cc1` to `Oc1ccc(-c2cc3c(NCc4ccc(F)cc4)ncnc3[nH]2)cc1`, the IC50 falls from 52 nM to 26 nM (2-fold). The second is the more potent here.

First: C[C@@H](Nc1nc[nH]c2nc(-c3ccccc3)cc1-2)c1ccccc1
Second: C[C@@H](Nc1ncnc2[nH]c(-c3ccc(C#N)cc3)cc12)c1ccc(F)cc1
The IC50 of the first is 4.2-fold lower: 3.3 nM for the first, 14 nM for the second.

Molecular target: T1, Epidermal growth factor receptor
Test: Inhibition of EGF-induced EGFR internalization in human HeLa cells assessed as subcellular localization of receptor at 500 nM measured after 15 to 20 mins post receptor activation by immunostaining-based confocal microscopy analysis
Assay type: cell-based

In the case of `C[C@@H](Nc1ncnc2[nH]c(-c3ccc(O)cc3)cc12)c1ccccc1`, the inhibition is reported as “inactive”.
